According to patent US20050079151A1, “Therapeutic agents for apoptosis-related diseases” (priority 1998, published 2005):
Where two headings read alike, the source gives them in different places.

B1: mouse MK: mouse MK (JP-A No. Hei 8-196293) (protein, UniProt P12025 23-140, looked up)
Midkine: KKKEKVKKGSECSEWTWGPCTPSSKDCGMGFREGTCGAQTQRVHCKVPCNWKKEFGADCKYKFESWGACDGSTGTKARQGTLKKARYNAQCQETIRVTKPCTSKTKSKTKAKKGKGKD

Columns and labels:
hippocampal neurocytes = settings: cited from earlier work
Bcl-2 = test: Effect for enhancing Bcl-2 expression (Western blotting); format: cell-based; settings: G401 cells, MK 100 ng/ml, no cisplatin
Protocol: The effect of MK on the expression of the Bcl-2 gene was examined. Six groups were prepared; the untreated group, the cisplatin (100 μM) treated group, the human MK (100 ng/ml) treated group, the human MK (100 ng/ml)+cisplatin (100 μM) group, the mouse MK (100 ng/ml) treated group, and the mouse MK (100 ng/ml)+cisplatin (100 μM) treated group.
G401 cells were seeded on a 3.5 cm-dish and cultured in 10% FBS/DMEM until the cells became almost confluent. The cells were washed twice and cultured in 0.1% FBS/DMEM overnight. Then, human MK or mouse MK (JP-A No. Hei 8-196293) was added to the MK treatment groups at 100 ng/ml and cultured for six hours. Cisplatin was added to the cisplatin treatment group to 100 μM, and cultured for 2 hours. After culturing, the cells were washed with 0.1% FBS/DMEM three times, cultured in 0.1% FBS/DMEM for 10 hours, and washed with PBS three times.
Two hundred microliters of buffer [1% Triton X-100, 150 mM NaCl, 10 mM Tris (pH 7.4), 1.0 mM EGTA, 0.5% NP-40, 1 mM PMSF, 0.1 μg/ml apiotinin, 40 nM Iewpeptin] were added to each dish and kept on ice for 20 min. The cells in each dish were detached by a scraper, and mixed 8 to 10 times using a syringe with a 26-gauge needle. The cells of each dish were centrifuged in a centrifuge tube at 4° C. at 12000 rpm for 30 min. The precipitated proteins were quantified (BCA Kit; PIERCE). The precipitate prepared from each dish (50 μg) was analyzed by Western blotting using anti-Bcl-2 monoclonal antibody (500×) (Dako; Denmark) and anti-mouse HRP antibody (Jackson Immuno Research) (FIG. 6). The band in each lane is numerically shown (FIG. 7).

Row | Molecule | rescuing hippocampal neurocytes from delayed neuronal death (hippocampal neurocytes; 28 days after the injury (Ishimura et al. 1998)) | dosage required for protection from delayed neuronal death (hippocampal neurocytes; intraventricular injection (Shigeno et al. 1991)) [µg] | rescuing hippocampal neurocytes from delayed neuronal death (hippocampal neurocytes; seven days after development of the ischemic injury (Ishimura et al. 1998)) | expression of Bcl-2 (Bcl-2)
1 | NGF: neurotrophic factor reported in the literature to ameliorate delayed neuronal death | not effective | 10 | effective | –
2 | B1 | – | – | – | enhanced the expression of Bcl-2
